Assay results as given in patent US11760775B2, “Steroids and protein-conjugates thereof” (Regeneron Pharmaceuticals, Inc., priority 2016, dated 2023).
pEC50, pIC50: −log10 of the molar value. Counter-ions that a name gives are not always drawn. Like-named read-outs stand apart in the source and are kept apart here.

Columns and labels:
[1] = molecular target: Glucocorticoid Receptor (GR) (Homo sapiens (Human), UniProt P04150); assay: LanthaScreen TR-FRET GR Competitive Binding Assay (cell free)
[2] = system: GR activation in 293/PRLR/GRE-Luc cells (HEK293/9xUAS-Luc2P/pBind-GR/PRLR-HA high cells); assay: GR co-activator luciferase reporter cell based assay in 293/PRLR/GRE-Luc cells; parameters: species or system human; conditions: for Emax / pEC50: Homo sapiens; for Emax: HEK293, read-out: Activation (fold activation relative to Budesonide) in HEK293/9xUAS-Luc2P/pBind-GR/PRLR-HA high cells
Excerpt: Bioassays described herein were used to assess the efficacy of free steroids and anti-PRLR-ncADCs. In one example, the bioassay assessed the activity of steroids, after internalization of a site-specific anti-PRLR-GC steroid ADC into cells, to bind to pBIND-GR and subsequent luciferase reporter activation. […] Then such stable cell line was further transfected with a chimeric receptor consisting of a GR ligand binding domain fused to the yeast Gal4 DNA binding domain (pBind-GR, Promega Cat #E1581), and a Gal4 upstream activator sequence (9×Gal4UAS-Luc2P) that drives luciferase gene expression.
(§1) For this assay, 20,000 cells were seeded in 96-well plates in media containing DMEM supplemented with 10% FBS and pencillin/streptomycin (complete media) and grown overnight at 37° C. in 5% CO2. […] Luciferase activity was determined by addition of OneGlo™ reagent (Promega, Cat #E6130) and relative light units (RLUs) were measured on a Victor luminometer (Perkin Elmer). The EC50 values were determined from a four-parameter logistic equation over a 10 point response curve using GraphPad Prism.
as §1, with “One-Glo™” for “OneGlo™”, “10-point” for “10 point”, “Prism. […] Minimal activation in this assay is defined as less than 10% of the maximal activation measured with the free payload.” for “Prism.”

[3] = HEK293, 72 hours of incubation, read-out: HEK293/9xUAS-Luc2P/pBind-GR/PRLR-HA high cells EC50

Sequence of Glucocorticoid Receptor (GR) (P04150 524-758): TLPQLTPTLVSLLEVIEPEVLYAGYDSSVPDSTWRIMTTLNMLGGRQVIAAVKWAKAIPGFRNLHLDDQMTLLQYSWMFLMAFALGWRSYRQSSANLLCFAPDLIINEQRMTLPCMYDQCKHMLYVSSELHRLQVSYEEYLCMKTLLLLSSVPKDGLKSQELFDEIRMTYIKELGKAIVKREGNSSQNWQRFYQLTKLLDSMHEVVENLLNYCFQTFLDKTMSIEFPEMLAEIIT

In the case of `CCC(=O)O[C@]1(C(=O)CNC)[C@@H](C)C[C@H]2[C@@H]3C[C@H](F)C4=CC(=O)C=C[C@]4(C)[C@@]3(F)[C@@H](O)C[C@@]21C` [Compound 14-2, (1R,2S,8S,10S,11S,13S,14R,15S,17S)-1,8-difluoro-17-hydroxy-2,13,15-trimethyl-14-[2-(methylamino)acetyl]-5-oxotetracyclo[8.7.0.0^2,70.0^11,15]heptadeca-3,6-dien-14-yl propanoate], the pIC50 [1] was greater than 8.00, the Emax ([2]; 72 hours of incubation) was less than 20% and the pEC50 [2, 3] was less than 7.00.
`CCCC1O[C@@H]2C[C@H]3[C@@H]4C[C@H](F)C5=CC(=O)C=C[C@]5(C)[C@@]4(F)[C@@H](O)C[C@]3(C)[C@]2(C(=O)COc2ccc(CN)cc2)O1` (stereo partly drawn) [11-15 R/S, (1S,2S,4R,8S,9S,11S,12R,13S,19S)-8-{2-[4-(Aminomethyl)phenoxy]acetyl}-12,19-difluoro-11-hydroxy-9,13-dimethyl-6-propyl-5,7-dioxapentacyclo[10.8.0.0^2,90.0^4,80.0^13,18]icosa-14,17-dien-16-one] gave a pIC50 [1] greater than 8.00, an Emax ([2]; 72 hours of incubation) of 20 to 75% and a pEC50 [2, 3] of 7.00 to 8.00.
For `C[C@]12C=CC(=O)C=C1CC[C@@H]1[C@@H]2[C@@H](O)C[C@@]2(C)[C@H]1C[C@H]1O[C@H](c3ccc(N)cc3)O[C@]12C(=O)CO` [7-1 S, (1S,2S,4R,6S,8S,9S,11S,12S,13R)-6-(4 Aminophenyl)-11-hydroxy-8-(2-hydroxyacetyl)-9,13-dimethyl-5,7-dioxapentacyclo[10.8.0.0^2,90.0^4,80.0^13,18]icosa-14,17-dien-16-one], the pIC50 [1] was greater than 8.00, the Emax ([2]; 72 hours of incubation) was 20 to 75% and the pEC50 [2, 3] was less than 7.00.
`C[C@]12C=CC(=O)C=C1CC[C@@H]1[C@@H]2[C@@H](O)C[C@@]2(C)[C@H]1C[C@H]1O[C@@H](c3ccc(N)cc3)O[C@]12C(=O)CO` [7-1 R, (1S,2S,4R,6R,8S,9S,11S,12S,13R)-6-(4-Aminophenyl)-11-hydroxy-8-(2-hydroxyacetyl)-9,13-dimethyl-5,7-dioxapentacyclo[10.8.0.0^2,90.0^4,80.0^13,18]icosa-14,17-dien-16-one] was tested, and the pIC50 [1] was 7.00 to 8.00, the Emax ([2]; 72 hours of incubation) was greater than 75% and the pEC50 [2, 3] was greater than 8.00.
`CCC[C@H]1O[C@@H]2C[C@H]3[C@@H]4CCC5=CC(=O)C=C[C@]5(C)[C@H]4[C@@H](O)C[C@]3(C)[C@]2(C(=O)COc2ccc(N)c(F)c2)O1` [11-6 S, (1S,2S,4R,6S,8S,9S,11S,12S,13R)-8-[2-(4-Amino-3-fluorophenoxy)acetyl]-11-hydroxyl-9,13-dimethyl-6-propyl-5,7-dioxapentacyclo[10.8.0.0^2,90.0^4,80.0^13,18]icosa-14,17-dien-16-one] gave a pIC50 [1] of 7.00 to 8.00, an Emax ([2]; 72 hours of incubation) greater than 75% and a pEC50 [2, 3] greater than 8.00.
In the case of `C[C@@H]1C[C@H]2[C@@H]3C[C@H](F)C4=CC(=O)C=C[C@]4(C)[C@@]3(F)[C@@H](O)C[C@]2(C)[C@@]1(O)C(=O)CN` [Compound 4d, (1R,2S,8S,10S,11S,13R,14R,15S,17S)-14-(2-Aminoacetyl)-1,8-difluoro-14,17-dihydroxy-2,13,15-trimethyltetracyclo 18.7.0.0^2,70.0^11,15]heptadeca-3,6-dien-5-one trifluoroacetate], the pIC50 [1] was 7.30 to 8.00, the pEC50 ([2]; HEK293, read-out: HEK293/9xUAS-Luc2P/pBind-GR/PRLR-HA high cells EC50) was 7.30 to 8.00 and the “HEK293/9xUAS-Luc2P/pBind-GR/PRLR-HA high cells activation relative to Budesonide” value ([2]; fold activation vs Budesonide) was “Partial”.
With `C[C@]12C=CC(=O)C=C1CC[C@@H]1[C@@H]2[C@@H](O)C[C@@]2(C)[C@H]1C[C@H]1OC(Cc3ccc(N)cc3)O[C@]12C(=O)CO` (stereo partly drawn) [7-2 R/S, (1S,2S,4R,8S,9S,11S,12S,13R)-6[(4-Aminophenyl)methyl]-11-hydroxy-8-(2-hydroxyacetyl)-9,13-dimethyl-5,7-dioxapentacyclo[10.8.0.0^2,90.0^4,80.0^13,18]icosa-14,17-dien-16-one] the pIC50 [1] was greater than 8.00, the “Fold Activation” value ([2]; 293/PRLR/GRE-Luc cells, 72 hours) was “Full” and the pEC50 ([2]; HEK293, 72 h, read-out: EC50) was 7.00 to 8.00. It also gave an Emax ([2]; 72 hours of incubation) of less than 20% and a pEC50 [2, 3] greater than 8.00.
